From publication PMC12616683, “In Vivo Atlas of Neuroprotective Cyclic Dipeptides Derived from Food Gelatin Using Peptidomics and Feature-Based Molecular Networking” (Journal of Agricultural and Food Chemistry, 2025)
Peptide text beside a SMILES is read from it.

Test: FBMN analysis of short peptides in small intestine contents and serum after oral DHG
Conditions: for Peptide signal (feature intensity) in the small intestine, 30 min / Peptide signal (feature intensity) in the small intestine, 60 min / Peptide signal (feature intensity) in the small intestine, 120 min / Peptide signal (feature intensity) in the small intestine, 240 min: small intestine contents, C57 mice, FBMN feature intensity, peptides smaller than 690 Da; for Peptide signal (feature intensity) in the small intestine, 30 min: 30 min after oral DHG; for Peptide signal (feature intensity) in the small intestine, 60 min: 60 min after oral DHG; for Peptide signal (feature intensity) in the small intestine, 120 min: 120 min after oral DHG; for Peptide signal (feature intensity) in the small intestine, 240 min: 240 min after oral DHG

Row | SMILES | Peptide signal (feature intensity) in the small intestine, 30 min | Peptide signal (feature intensity) in the small intestine, 60 min | Peptide signal (feature intensity) in the small intestine, 120 min | Peptide signal (feature intensity) in the small intestine, 240 min | time detected in serum (FBMN) (serum, time points 0.5-4 h after oral DHG)
1 | N[C@@H](CO)C(=O)N[C@@H](Cc1ccccc1)C(=O)O [Ser-Phe] | 0.00E+00 | 1.38E+06 | 0.00E+00 | 4.01E+05 | –
2 | CC(C)[C@H](NC(=O)[C@@H](N)CO)C(=O)O [Ser-Val] (H-Ser-Val-OH) | 0.00E+00 | 5.23E+06 | 0.00E+00 | 2.48E+07 | –
3 | CC(C)C[C@H](NC(=O)[C@@H](N)[C@@H](C)O)C(=O)O [Thr-Leu] (H-Thr-Leu-OH) | 0.00E+00 | 4.45E+06 | 0.00E+00 | 8.43E+06 | –
4 | CC(C)CC(NC(=O)C(NC(=O)C(N)C(C)O)C(C)C)C(=O)O (stereo not drawn) [Thr-Val-Leu] (H-Thr-Val-Leu-OH; configuration not given here) | 5.29E+05 | 1.54E+05 | 0.00E+00 | 1.07E+06 | –
5 | Cc1cn([C@H]2C[C@H](O)[C@@H](CO)O2)c(=O)[nH]c1=O [Thymidine] | 6.40E+05 | 1.66E+05 | 0.00E+00 | 0.00E+00 | –
6 | N[C@@H](Cc1c[nH]c2ccccc12)C(=O)N[C@@H](CCC(=O)O)C(=O)O [Trp-Glu] (H-Trp-Glu-OH) | 0.00E+00 | 0.00E+00 | 0.00E+00 | 1.26E+07 | –
7 | CSCC[C@H](NC(=O)[C@@H](N)Cc1c[nH]c2ccccc12)C(=O)O [Trp-Met] (H-Trp-Met-OH) | 0.00E+00 | 0.00E+00 | 0.00E+00 | 1.16E+06 | –
8 | N[C@@H](Cc1c[nH]c2ccccc12)C(=O)NCC(=O)O [Trp-gly] (H-Trp-Gly-OH) | 0.00E+00 | 0.00E+00 | 0.00E+00 | 6.50E+05 | –
9 | CC(C)CC(NC(=O)C(N)Cc1ccc(O)cc1)C(=O)O (stereo not drawn) [Tyr-Leu] (H-Tyr-Leu-OH; configuration not given here) | 2.28E+06 | 2.16E+06 | 0.00E+00 | 0.00E+00 | –
10 | NC(Cc1ccc(O)cc1)C(=O)NC(Cc1ccc(O)cc1)C(=O)O (stereo not drawn) [Tyr-Tyr] (H-Tyr-Tyr-OH; configuration not given here) | 2.40E+05 | 1.86E+06 | 0.00E+00 | 0.00E+00 | –
11 | CC(C)[C@H](NC(=O)[C@@H](N)Cc1ccc(O)cc1)C(=O)O [Tyr-Val] (H-Tyr-Val-OH) | 2.96E+06 | 1.48E+06 | 0.00E+00 | 0.00E+00 | –
12 | CC(C)[C@H](N)C(=O)NCC(=O)N[C@H](C(=O)O)C(C)C [Val-Gly-Val] (H-Val-Gly-Val-OH) | 4.35E+07 | 3.24E+07 | 0.00E+00 | 4.99E+06 | –
13 | CC[C@H](C)[C@H](NC(=O)[C@@H](N)C(C)C)C(=O)N[C@@H](CCCCN)C(=O)O [Val-Ile-Lys] (H-Val-Ile-Lys-OH) | 0.00E+00 | 2.02E+05 | 0.00E+00 | 4.35E+06 | –
14 | CC(C)CC(NC(=O)C(N)C(C)C)C(=O)O (stereo not drawn) [Val-Leu] (H-Val-Leu-OH; configuration not given here) | 2.94E+06 | 3.78E+06 | 0.00E+00 | 0.00E+00 | –
15 | CSCC[C@H](NC(=O)[C@@H](N)C(C)C)C(=O)O [Val-Met] (H-Val-Met-OH) | 3.30E+06 | 7.38E+06 | 0.00E+00 | 0.00E+00 | –
16 | CC(C)[C@H](N)C(=O)N[C@@H](Cc1ccccc1)C(=O)O [Val-Phe] (H-Val-Phe-OH) | 1.38E+06 | 1.78E+06 | 0.00E+00 | 0.00E+00 | –
17 | CC(C)[C@H](N)C(=O)N[C@@H](Cc1c[nH]c2ccccc12)C(=O)O [Val-Trp] (H-Val-Trp-OH) | 4.66E+05 | 4.22E+05 | 6.61E+05 | 1.64E+06 | –
18 | CC(C)[C@H](N)C(=O)N[C@H](C(=O)O)C(C)C [Val-Val] (H-Val-Val-OH) | 5.52E+06 | 1.24E+07 | 0.00E+00 | 0.00E+00 | –
19 | CC(C)CC1NC(=O)C2CC(O)CN2C1=O [cyclo(L-Leu-L-Hyp)] | 9.23E+06 | 0.00E+00 | 5.32E+06 | 2.54E+06 | –
20 | O=C1N[C@@H](Cc2ccccc2)C(=O)N2C[C@@H](O)C[C@@H]12 [cyclo(L-Phe-L-4-Hyp)] | 1.19E+07 | 0.00E+00 | 1.15E+07 | 6.80E+06 | –
21 | CC(C)[C@@H]1NC(=O)[C@@H]2CCCN2C1=O [cyclo(L-Val-L-Pro)] | 3.95E+05 | 0.00E+00 | 6.03E+05 | 4.57E+05 | –
22 | CC(C)C[C@@H]1NC(=O)[C@H](Cc2ccccc2)NC1=O [cyclo(Leu-Phe)] | – | – | – | – | 0.5 to 4 h
